Read-outs that look alike come from different tables or passages of the source.

We go through 23 molecules from patent US20180282347A1, “BICYCLIC COMPOUNDS AS PEST CONTROL AGENTS” (BAYER CROPSCIENCE AKTIENGESELLSCHAFT, priority 2014, published 2018).

For series [1], the system named is Myzus persicae. The experiment in a line: Myzus persicae - spray test. The format is in vivo. The settings on record: foliar, 144 h, application rate 500 g/ha, sprayed Chinese cabbage leaf discs (Brassica pekinensis) infested by all stages, after 6 days, read-out: efficacy in % (100% = all aphids killed). How it is done:
Myzus persicae—Spray Test
Solvent: 78 parts by weight of acetone • • 1.5 parts by weight of dimethylformamide
Emulsifier: alkylaryl polyglycol ether
To produce further test concentrations, the formulation is diluted with emulsifier-containing water.
After 6 days, the efficacy in % is determined. 100% means that all the aphids have been killed; 0% means that no aphids have been killed.

A short description of series [2]: log P by HPLC on reversed-phase (C18) columns, OECD Guideline 117. The series is classed as physicochemical. The conditions noted are these: reversed-phase (C18) HPLC column. As for the experimental part: Calibration is carried out using unbranched alkan-2-ones (having 3 to 16 carbon atoms) with known log P values (log P values determined on the basis of the retention times by linear interpolation between two successive alkanones).

Setting [3] is: acidic range, pH 2.7, 0.1% aqueous formic acid and acetonitrile as eluents, read-out: logP [a].
[4] abbreviates: neutral range, pH 7.8, 0.001 molar aqueous ammonium hydrogencarbonate solution and acetonitrile as eluents, read-out: logP [b].

On to `Cc1cc(F)c(-c2cc3sc(-c4cccnc4)nc3cn2)cc1SCC(F)(F)F` [Example 1, 6-[2-Fluoro-4-methyl-5-(2,2,2-trifluoroethylsulphanyl)phenyl]-2-(3-pyridyl)thiazolo [4,5-c]pyridine], for which the pest or weed control at 500 g/ha in series [1] is 90%. Moreover, the chromatographic logP came to 4.45 in series [2] (setting [3]) and 4.41 in series [2] (setting [4]).
As to `Cc1cc(F)c(-c2cc3sc(-c4cccnc4)nc3cn2)cc1[S+]([O-])CC(F)(F)F` (stereo not shown) [Example 2, 6-[2-Fluoro-4-methyl-5-(2,2,2-trifluoroethylsulphinyl)phenyl]-2-(3-pyridyl)thiazolo [4,5-c]pyridine], the chromatographic logP in series [2] (setting [3]) amounted to 2.8; in series [2] (setting [4]), 2.77.
The corresponding values for `FC(F)(F)c1cc2sc(-c3cccnc3)nc2cn1` [Example 3, 2-(3-Pyridyl)-6-(trifluoromethyl)thiazolo[4,5-c]pyridine] are 2.32 and 2.32.
With `c1cncc(-c2nc3cnc(N4CCOCC4)cc3s2)c1` [Example 4, 4-[2-(3-Pyridyl)thiazolo[4,5-c]pyridin-6-yl]morpholine], the pest or weed control at 500 g/ha in series [1] worked out at 90%. In addition, the chromatographic logP in series [2] (setting [3]) came out at 1.73; in series [2] (setting [4]), 1.94.
Regarding `Cc1ccc(-c2cc3sc(-c4cccnc4)nc3cn2)cc1[S+]([O-])CC(F)(F)F` (stereo not shown) [Example 5], the chromatographic logP in series [2] (setting [3]) is 2.79; in series [2] (setting [4]), 2.74.
The corresponding values for `c1ccc(-c2cc3sc(-c4cccnc4)nc3cn2)nc1` [Example 6, 6-(2-Pyridyl)-2-(3-pyridyl)thiazolo[4,5-c]pyridine] are 1.68 and 2.38.
For `CN(C(=O)c1cccc(SC(F)(F)F)c1)c1cc2sc(-c3cccnc3)nc2cn1` [Example 7], the pest or weed control at 500 g/ha in series [1] was found to be 90%. Also, the chromatographic logP in series [2] (setting [3]) worked out at 3.3.
The corresponding values for `CN(C(=O)C1CCS(=O)(=O)C1)c1cc2sc(-c3cccnc3)nc2cn1` (stereo not shown) [Example 10] are 90% and 1.37.
Consider `O=C(Nc1cccc(SC(F)(F)F)c1)c1cc2sc(-c3cccnc3)nc2cn1` [Example 11], for which the chromatographic logP in series [2] (setting [3]) was determined as 4.33.
As to `O=C(Nc1cccc([S+]([O-])C(F)(F)F)c1)c1cc2sc(-c3cccnc3)nc2cn1` (stereo not shown) [Example 14], in series [2] (setting [3]), the chromatographic logP was found to be 2.99.
Regarding `CN(C(=O)CCS(C)(=O)=O)c1cc2sc(-c3cccnc3)nc2cn1` [Example 17, N-Methyl-3-(methylsulphonyl)-N-[2-(pyridin-3-yl) [1,3]thiazolo[4,5-c]pyridin-6-yl]propanamide], the pest or weed control at 500 g/ha in series [1] is 90%. For the same molecule, the chromatographic logP in series [2] (setting [3]) came out at 1.25.
The corresponding values for `CN(C(=O)c1cccc(S(=O)(=O)C(F)(F)F)c1)c1cc2sc(-c3cccnc3)nc2cn1` [Example 18] are 100% and 1.54.
In the case of `O=C(Nc1cccc(S(=O)(=O)C(F)(F)F)c1)c1cc2sc(-c3cccnc3)nc2cn1` [Example 19], in series [2] (setting [3]), the chromatographic logP was found to be 2.09.
The same measure, in the same setting: for `CNC(=O)c1cc2sc(-c3cccnc3)nc2cn1` [Example 20] the value was 1.35.
As to `CCN(C)C(=O)c1cc2sc(-c3cccnc3)nc2cn1` [Example 21], the pest or weed control at 500 g/ha in series [1] was 90%. Further, in series [2] (setting [3]), the chromatographic logP is 1.52.
The corresponding values for `CN(C(=O)c1cccc([S+]([O-])C(F)(F)F)c1)c1cc2sc(-c3cccnc3)nc2cn1` (stereo not shown) [Example 22] are 90% and 2.21.
As to `Clc1cc2sc(-c3cccnc3)nc2cn1` [Example 24, 6-Chloro-2-(3-pyridyl)thiazolo[4,5-c]pyridine], the chromatographic logP in series [2] (setting [3]) was found to be 1.89.
Consider `Cc1ccc(-c2cc3sc(-c4cccnc4)nc3cn2)cc1SCC(F)(F)F` [Example 25], for which the chromatographic logP was 4.32 in series [2] (setting [3]) and 4.21 in series [2] (setting [4]).
The corresponding values for `FC(F)(F)c1ccn(-c2cc3sc(-c4cccnc4)nc3cn2)n1` [Example 26, 2-(Pyridin-3-yl)-6-[3-(trifluoromethyl)-1H-pyrazol-1-yl][1,3]thiazolo[4,5-c]pyridine] are 3.66 and 3.68.
The corresponding values for `c1cncc(-c2nc3cnc(N4CCCC4)cc3s2)c1` [Example 27, 2-(Pyridin-3-yl)-6-(pyrrolidin-1-yl)[1,3]thiazolo[4,5-c]pyridine] are 1.38 and 2.61.
Consider `O=C(Nc1cc2sc(-c3cccnc3)nc2cn1)c1cccc([S+]([O-])C(F)(F)F)c1` (stereo not shown) [Example 28], for which the chromatographic logP in series [2] (setting [3]) was determined as 2.61.
The same measure, in the same setting: the value for `CS(=O)(=O)CCC(=O)Nc1cc2sc(-c3cccnc3)nc2cn1` [Example 29] was 1.17.
The same measure, in the same setting: the value for `CS(=O)(=O)CCNC(=O)c1cc2sc(-c3cccnc3)nc2cn1` [Example 30] was 1.23.
